For 35 molecules, Ki results are on record in patent US8940731B2, “Substituted pyridyl amide compounds as modulators of the histamine H3 receptor” (Janssen Pharmaceutica NV, priority 2006, dated 2015).

For experiment [1], the target named is Rat H3 (Rattus norvegicus, UniProt Q9QYN8). Kind of experiment: H3 Receptor Binding (Rat). The following applies: rat brain membranes without cerebellum, 0.8 nM N-[3H]-α-methylhistamine, 60 min at 25° C.; average of the results obtained. How it is done: H3 Receptor Binding (Rat)
Chain of Rat H3 (Q9QYN8 1-397 isoform Q9QYN8-3): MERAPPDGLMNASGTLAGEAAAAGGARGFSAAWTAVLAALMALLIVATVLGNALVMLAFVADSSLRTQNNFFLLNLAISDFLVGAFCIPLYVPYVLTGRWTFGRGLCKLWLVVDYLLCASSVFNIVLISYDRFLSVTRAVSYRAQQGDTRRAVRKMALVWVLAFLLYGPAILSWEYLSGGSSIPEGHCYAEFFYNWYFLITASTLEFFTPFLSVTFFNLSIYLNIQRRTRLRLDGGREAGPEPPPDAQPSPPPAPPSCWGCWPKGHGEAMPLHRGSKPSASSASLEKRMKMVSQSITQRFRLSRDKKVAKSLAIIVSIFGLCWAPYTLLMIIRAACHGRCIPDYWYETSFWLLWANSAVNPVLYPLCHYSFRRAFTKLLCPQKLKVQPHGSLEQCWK
A rat brain without cerebellum (Zivic Laboratories Inc., Pittsburgh, Pa.) was homogenized in 50 mM Tris-HCl/5 mM EDTA and centrifuged at 1,000 rpm for 5 min. The supernatant was removed and recentrifuged at 15,000 rpm for 30 min. Pellets were rehomogenized in 50 mM Tris/5 mM EDTA (pH 7.4). Membranes were incubated with 0.8 nM N-[^3H]-α-methylhistamine plus/minus test compounds for 60 min at 25° C. and harvested by rapid filtration over GF/C glass fiber filters (pretreated with 0.3% polyethylenimine) followed by four washes with buffer. Nonspecific binding was defined in the presence of 100 μM histamine.

Experiment [2] concerns the target T1, cloned human H3 receptors (Homo sapiens, UniProt Q9Y5N1).
T1 construct: expressed in transfected cells
The experiment can be described thus: H3 Receptor Binding (Human). The protocol: H3 Receptor Binding (Human)
Binding of compounds to the cloned human H3 receptors, stably expressed in SK-N-MC cells, was performed as described by Barbier, A. J. et al. (Br. J. Pharmacol. 2004, 143(5), 649-661).

[3] abbreviates: cloned human H3 receptors stably expressed in SK-N-MC cells, average of the results obtained, read-out: Human H3 Ki.
Where [4] appears, read: bromo-pyridine intermediates (Step A), value given in the synthesis, read-out: Assay 1 (Human H3): Ki.

Counter-ions that a name gives are not always drawn. Like-named read-outs stand apart in the source and are kept apart here.

The Ki is the equilibrium dissociation constant of an inhibitor or competing ligand from its target.

T1 sequence (Q9Y5N1 whole entry): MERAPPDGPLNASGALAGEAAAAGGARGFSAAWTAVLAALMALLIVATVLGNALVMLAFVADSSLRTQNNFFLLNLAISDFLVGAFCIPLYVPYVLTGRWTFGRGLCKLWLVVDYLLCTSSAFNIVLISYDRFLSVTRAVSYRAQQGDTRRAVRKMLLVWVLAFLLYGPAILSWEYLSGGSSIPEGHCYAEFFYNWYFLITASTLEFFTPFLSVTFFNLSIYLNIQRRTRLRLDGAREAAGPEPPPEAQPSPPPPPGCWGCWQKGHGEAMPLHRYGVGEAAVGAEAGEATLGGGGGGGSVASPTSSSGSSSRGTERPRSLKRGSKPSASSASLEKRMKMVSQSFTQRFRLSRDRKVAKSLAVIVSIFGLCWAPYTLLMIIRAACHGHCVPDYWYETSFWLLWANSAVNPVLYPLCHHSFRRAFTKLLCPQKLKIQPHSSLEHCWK

`O=C(c1ccc(Oc2cccc(F)c2)nc1)N1CCCN(C2CC2)CC1` [Example 37, (4-Cyclopropyl-[1,4]diazepan-1-yl)-[6-(3-fluoro-phenoxy)-pyridin-3-yl]-methanone]: the Ki in experiment [1] was 130 nM; in experiment [2] (setting [3]), 5 nM.
With `CSc1ccc(Oc2ccc(C(=O)N3CCCN(C4CCC4)CC3)cn2)cc1` [Example 105, (4-Cyclobutyl-[1,4]diazepan-1-yl)-[6-(4-methylsulfanyl-phenoxy)-pyridin-3-yl]-methanone], the Ki in experiment [1] was 32 nM; in experiment [2] (setting [3]), 11 nM.
With `Cc1cc(Oc2ccc(C(=O)N3CCCN(C4CC4)CC3)nc2C#N)ccc1Cl` [Example 57, 3-(4-Chloro-3-methyl-phenoxy)-6-(4-cyclopropyl-[1,4]diazepane-1-carbonyl)-pyridine-2-carbonitrile], the Ki in experiment [1] was found to be 132 nM; in experiment [2] (setting [3]), 3 nM.
`O=C(c1ccc(Oc2ccccc2)nc1)N1CCCN(C2CCC2)CC1` [Example 21, (4-Cyclobutyl-[1,4]diazepan-1-yl)-(6-phenoxy-pyridin-3-yl)-methanone]: the Ki in experiment [1] worked out at 16 nM; in experiment [2] (setting [3]) it was 2 nM.
As to `O=C(c1ccc(Oc2ccc(F)c(F)c2)nc1)N1CCCN(C2CC2)CC1` [Example 27, (4-Cyclopropyl-[1,4]diazepan-1-yl)-[6-(3,4-difluoro-phenoxy)-pyridin-3-yl]-methanone], the Ki turned out to be 86 nM in experiment [1] and 4 nM in experiment [2] (setting [3]).
In the case of `O=C(c1ccc(Oc2ccc(F)cc2F)nc1)N1CCCN(C2CC2)CC1` [Example 32, (4-Cyclopropyl-[1,4]diazepan-1-yl)-[6-(2,4-difluoro-phenoxy)-pyridin-3-yl]-methanone], the Ki in experiment [1] came to 92 nM; in experiment [2] (setting [3]), 4 nM.
Regarding `O=C(c1ccc(Oc2ccc(Cl)c(Cl)c2)cn1)N1CCCN(C2CC2)CC1` [Example 52, (4-Cyclopropyl-[1,4]diazepan-1-yl)-[5-(3,4-dichloro-phenoxy)-pyridin-2-yl]-methanone trifluoroacetic acid salt], the Ki is 110 nM in experiment [1] and 4 nM in experiment [2] (setting [3]).
The matching figures for `O=C(c1ccc(Oc2cccc(Cl)c2)nc1)N1CCCN(C2CC2)CC1` [Example 23, [6-(3-Chloro-phenoxy)-pyridin-3-yl]-(4-cyclopropyl-[1,4]diazepan-1-yl)-methanone]: 70 nM and 3 nM.
On to `N#Cc1cccc(Oc2ccc(C(=O)N3CCCN(C4CCC4)CC3)cn2)c1` [Example 20, 3-[5-(4-Cyclobutyl-[1,4]diazepane-1-carbonyl)-pyridin-2-yloxy]-benzonitrile], for which the inhibition constant Ki in experiment [1] amounted to 17 nM; in experiment [2] (setting [3]), 1 nM.
For the molecule `Cc1cc(Oc2ccc(C(=O)N3CCCN(C(C)C)CC3)cn2)ccc1Cl` [Example 17, [6-(4-Chloro-3-methyl-phenoxy)-pyridin-3-yl]-(4-isopropyl-[1,4]diazepan-1-yl)-methanone], in experiment [2] (setting [3]), the Ki worked out at 5 nM.
As to `O=C(c1ccc(Oc2cc(F)cc(F)c2)nc1)N1CCCN(C2CCC2)CC1` [Example 36, (4-Cyclobutyl-[1,4]diazepan-1-yl)-[6-(3,5-difluoro-phenoxy)-pyridin-3-yl]-methanone], the Ki in experiment [1] came out at 30 nM; in experiment [2] (setting [3]) it was 1 nM.
Take `CC(C)N1CCN(C(=O)c2ccc(Oc3cccc(C#N)c3)nc2)CC1` [Example 7, 3-[5-(4-Isopropyl-piperazine-1-carbonyl)-pyridin-2-yloxy]-benzonitrile]: in experiment [2] (setting [3]), the Ki came out at 57 nM.
For `O=C(c1ccc(Oc2cc(Cl)cc(Cl)c2)nc1)N1CCCN(C2CCC2)CC1` [Example 33, (4-Cyclobutyl-[1,4]diazepan-1-yl)-[6-(3,5-dichloro-phenoxy)-pyridin-3-yl]-methanone], in experiment [2] (setting [3]), the Ki was found to be 1 nM.
`O=C(c1ccc(Br)cn1)N1CCCN(C2CCC2)CC1` [(5-Bromo-pyridin-2-yl)-(4-cyclobutyl-[1,4]diazepan-1-yl)-methanone]: the Ki in experiment [2] (setting [4]) was found to be 11 nM.
For the molecule `Cc1cc(Oc2cccc(C(=O)N3CCCN(C4CCC4)CC3)n2)ccc1Cl` [Example 48, [6-(4-Chloro-3-methyl-phenoxy)-pyridin-2-yl]-(4-cyclobutyl-[1,4]diazepan-1-yl)-methanone trifluoroacetic acid salt], the Ki in experiment [2] (setting [3]) stood at 67 nM.
Take `O=C(c1ccc(Sc2ccc(Cl)cc2)nc1)N1CCCN(C2CCC2)CC1` [Example 85, [6-(4-Chloro-phenylsulfanyl)-pyridin-3-yl]-(4-cyclobutyl-[1,4]diazepan-1-yl)-methanone]: the Ki in experiment [2] (setting [3]) was 1 nM.
Still for that read-out and setting: then `O=C(c1ccc(Sc2ccccc2)cn1)N1CCCN(C2CCC2)CC1` [Example 91, (4-Cyclobutyl-[1,4]diazepan-1-yl)-(5-phenylsulfanyl-pyridin-2-yl)-methanone], with 3 nM; and `CC(C)N1CCN(C(=O)c2ccc(Oc3ccc(Cl)c(Cl)c3)nc2)CC1` [Example 1, [6-(3,4-Dichloro-phenoxy)-pyridin-3-yl]-(4-isopropyl-piperazin-1-yl)-methanone], with 29 nM; and `CSc1ccc(Oc2ccc(C(=O)N3CCCN(C4CC4)CC3)nc2C(N)=O)cc1` [Example 62, 6-(4-Cyclopropyl-[1,4]diazepane-1-carbonyl)-3-(4-methylsulfanyl-phenoxy)-pyridine-2-carboxylic acid amide], with 36 nM.
As to `O=C(c1ccc(Oc2ccccc2)nc1)N1CCCN(C2CC2)CC1` [Example 13, (4-Cyclopropyl-[1,4]diazepan-1-yl)-(6-phenoxy-pyridin-3-yl)-methanone], the figures for the Ki in experiment [1] and in experiment [2] (setting [3]) were 54 nM and 6 nM, respectively.
For the molecule `O=C(c1ccc(Oc2cc(Cl)cc(Cl)c2)nc1)N1CCCN(C2CC2)CC1` [Example 35, (4-Cyclopropyl-[1,4]diazepan-1-yl)-[6-(3,5-dichloro-phenoxy)-pyridin-3-yl]-methanone], the Ki in experiment [2] (setting [3]) came out at 3 nM.
For the molecule `Cc1cc(Oc2cccc(C(=O)N3CCCN(C(C)C)CC3)n2)ccc1Cl` [Example 49, [6-(4-Chloro-3-methyl-phenoxy)-Pyridin-2-yl]-(4-isopropyl-[1,4]diazepan-1-yl)-methanone trifluoroacetic acid salt], in experiment [2] (setting [3]), the Ki was 115 nM.
For `CSc1ccc(Oc2ccc(C(=O)N3CCCN(C4CC4)CC3)cn2)cc1C` [Example 41, (4-Cyclopropyl-[1,4]diazepan-1-yl)-[6-(3-methyl-4-methylsulfanyl-phenoxy)-pyridin-3-yl]-methanone], the Ki in experiment [1] was 75 nM; in experiment [2] (setting [3]), 4 nM.
On to `CC(C)N1CCCN(C(=O)c2cccc(Oc3ccc(Cl)c(Cl)c3)n2)CC1` [Example 46, [6-(3,4-Dichloro-phenoxy)-pyridin-2-yl]-(4-isopropyl-[1,4]diazepan-1-yl)-methanone], for which the Ki in experiment [2] (setting [3]) was 202 nM.
`O=C(c1ccc(Sc2ccc(F)cc2)nc1)N1CCCN(C2CCC2)CC1` [Example 97, (4-Cyclobutyl-[1,4]diazepan-1-yl)-[6-(4-fluoro-phenylsulfanyl)-pyridin-3-yl]-methanone]: the Ki in experiment [2] (setting [3]) came to 1 nM.
Regarding `O=C(c1ccc(Br)cn1)N1CCCN(C2CC2)CC1` [(5-Bromo-pyridin-2-yl)-(4-cyclopropyl-[1,4]diazepan-1-yl)-methanone], the Ki in experiment [2] (setting [4]) came to 115 nM.
For the molecule `CC(C)CN1CCN(C(=O)c2ccc(Oc3ccc(F)cc3)nc2)CC1` [Example 93, [6-(4-Fluoro-phenoxy)-pyridin-3-yl]-(4-isobutyl-piperazin-1-yl)-methanone], in experiment [2] (setting [3]), the Ki was 58 nM.
As for `O=C(c1ccc(Oc2cccc(F)c2)cn1)N1CCCN(C2CCC2)CC1` [Example 71, (4-Cyclobutyl-[1,4]diazepan-1-yl)-[5-(3-fluoro-phenoxy)-pyridin-2-yl]-methanone trifluoroacetic acid salt], the Ki in experiment [2] (setting [3]) worked out at 2 nM.
Turning to `CSc1ccc(Oc2ccc(C(=O)N3CCCN(C(C)C)CC3)cn2)cc1C` [Example 42, (4-Isopropyl-[1,4]diazepan-1-yl)-[6-(3-methyl-4-methylsulfanyl-phenoxy)-pyridin-3-yl]-methanone], the Ki in experiment [2] (setting [3]) was found to be 12 nM.
As for `CC(C)N1CCN(C(=O)c2ccc(Oc3cccc(Cl)c3)nc2)CC1` [Example 4, [6-(3-Chloro-phenoxy)-pyridin-3-yl]-(4-isopropyl-piperazin-1-yl)-methanone], the Ki in experiment [2] (setting [3]) is 56 nM.
`O=C(c1ccc(Oc2ccc(Cl)cc2)nc1)N1CCCN(C2CC2)CC1` [Example 10, [6-(4-Chloro-phenoxy)-pyridin-3-yl]-(4-cyclopropyl-[1,4]diazepan-1-yl)-methanone]: in experiment [2] (setting [3]), the Ki is 10 nM.
Consider `N#Cc1nc(C(=O)N2CCCN(C3CC3)CC2)ccc1Oc1ccccc1` [Example 81, 6-(4-Cyclopropyl-[1,4]diazepane-1-carbonyl)-3-phenoxy-pyridine-2-carbonitrile], for which, in experiment [2] (setting [3]), the Ki worked out at 3 nM.
Regarding `Cc1cc(Oc2ccc(C(=O)N3CCN(C(C)C)CC3)cn2)ccc1Cl` [Example 6, [6-(4-Chloro-3-methyl-phenoxy)-pyridin-3-yl]-(4-isopropyl-piperazin-1-yl)-methanone], the Ki in experiment [2] (setting [3]) worked out at 32 nM.
On to `CSc1ccc(Oc2ccc(C(=O)N3CCN(C4CCCC4)CC3)cn2)cc1C` [Example 100, (4-Cyclopentyl-piperazin-1-yl)-[6-(3-methyl-4-methylsulfanyl-phenoxy)-pyridin-3-yl]-methanone], for which, in experiment [2] (setting [3]), the Ki is 98 nM.
`CSc1ccc(Oc2ccc(C(=O)N3CCN(C(C)C)CC3)cn2)cc1C` [Example 101, (4-Isopropyl-piperazin-1-yl)-[6-(3-methyl-4-methylsulfanyl-phenoxy)-pyridin-3-yl]-methanone]: the Ki in experiment [2] (setting [3]) stood at 59 nM.
